Test results from article PMC12977544, “Phenotypic high-throughput screening identifies modulators of gut microbial choline metabolism” (mBio, 2026).
pEC50, pIC50: −log10 of the molar value.

Columns and labels:
E. coli MS 200-1 = assay: Growth inhibition of E. coli cultures in choline- and glycerol-containing minimal media; type: cell-based, Escherichia coli MS 200-1; settings: for Effect on growth of E. coli MS 200-1 in glycerol medium: glycerol NCE minimal medium
Experimental: To validate the potential hits from the HTS, we tested the 178 compounds for inhibition of growth of E. coli MS 200-1 in glycerol minimal media at 30 µg/mL, following up with those without activity. […]. We then determined EC50 values for inhibition of TMA production from choline by bacterial cultures incubated with [trimethyl-d9]choline in phosphate-buffered saline. Of the 178 compounds tested in both growth and TMA inhibition assays, 20 inhibited TMA generation by E. coli MS 200-1 without growth-inhibitory effects in glycerol minimal medium.
NCE media was adapted based on the “no carbon E” media as previously described ([14]), and contains 29 mM potassium phosphate monobasic, 29 mM potassium phosphate dibasic, 17 mM ammonium sodium phosphate dibasic, 40 mM sodium fumarate dibasic, 0.1% (wt/vol) casamino acids, and either 20 mM choline chloride or 3 g/L glycerol. This mixture was supplemented with 1 mM magnesium sulfate, 1% ATCC vitamin supplement, and 1% ATCC trace mineral supplement.

[1] = system: choline-metabolizing gut bacteria (E. coli, P. mirabilis, C. sporogenes, A. hydrogenalis); assay: TMA inhibition across the panel of four choline-metabolizing gut bacteria; type: cell-based; settings: for pEC50: read-out: EC50 values for TMA inhibition across the choline-metabolizing bacteria
From the text: We then used secondary assays to prioritize scaffolds that had broad-spectrum TMA inhibitory activity against additional choline-metabolizing gut bacteria. For this, we used Clostridium sporogenes ATCC 15579, a human gut isolate that is able to efficiently ferment choline in addition to other carbon sources, as well as Anaerococcus hydrogenalis DSM 7454 and Proteus mirabilis ATCC 29906, human gut isolates previously identified to metabolize choline in vitro ([61]). In particular, E. coli MS 200-1 and C. sporogenes ATCC 15579 have been used in gnotobiotic studies to investigate the effects of bacterial choline metabolism on the host and microbiome ([46], [61], [62]). These strains are representative of taxa frequently detected in humans ([63]) and, together with E. coli, are representative of the major phyla and genera in which TMA producers have been detected across human gut isolates ([48]). Importantly, this group of strains included both gram-positive and gram-negative bacteria. Gram-negative bacteria have an additional outer membrane layer and associated efflux pumps ([29]), which typically decreases small molecule permeability compared to gram-positive bacteria. It also included bacteria with cut gene cluster architectures that differ in the number and types of microcompartment proteins encoded and in the size of the CutC enzyme ([48]). We hypothesized that testing the inhibitors against multiple choline-utilizing gut bacteria would increase the likelihood of identifying compounds with broad-spectrum activity.
Compounds were stored as 10 mM DMSO stocks at –20°C and diluted in DMSO to prepare varying concentrations of inhibitors for testing. Bacteria were grown anaerobically overnight in media supplemented with choline as described above. Cells were pelleted and resuspended in PBS, and d9-choline chloride was added to a final concentration of 1 mM. The final OD600 of the PBS cell resuspensions is as follows: 0.4 (E. coli), 0.15–0.2 (P. mirabilis), 0.2 (C. sporogenes), and 0.4 (A. hydrogenalis). The resuspended cells were added to 96-well plates containing inhibitors (final concentration of 1% DMSO, with final inhibitor concentrations ranging between 0 and 325 µM). The plates were sealed and incubated for 75 min (or 90 min for P. mirabilis) at 37°C. Following incubation, the plates were removed from the anaerobic chamber and analyzed immediately or kept at –20°C until LC–MS/MS analysis. Each inhibitor concentration was tested in triplicate. EC50 values were calculated with GraphPad Prism by fitting the log(inhibitor) vs response—Variable slope (four-parameter) model for non-linear regression.

[2] = target: T1, purified CutC (choline trimethylamine-lyase) (Oleidesulfovibrio alaskensis, UniProt Q30W70); assay: In vitro CutC activity assay coupled to YADH/NADH (absorbance 340 nm); type: biochemical, Desulfovibrio desulfuricans G20; settings: 5 nM CutC, 200 µM choline, 20°C, anaerobic
T1 construct: made in house
T1 sequence (Q30W70 53-846): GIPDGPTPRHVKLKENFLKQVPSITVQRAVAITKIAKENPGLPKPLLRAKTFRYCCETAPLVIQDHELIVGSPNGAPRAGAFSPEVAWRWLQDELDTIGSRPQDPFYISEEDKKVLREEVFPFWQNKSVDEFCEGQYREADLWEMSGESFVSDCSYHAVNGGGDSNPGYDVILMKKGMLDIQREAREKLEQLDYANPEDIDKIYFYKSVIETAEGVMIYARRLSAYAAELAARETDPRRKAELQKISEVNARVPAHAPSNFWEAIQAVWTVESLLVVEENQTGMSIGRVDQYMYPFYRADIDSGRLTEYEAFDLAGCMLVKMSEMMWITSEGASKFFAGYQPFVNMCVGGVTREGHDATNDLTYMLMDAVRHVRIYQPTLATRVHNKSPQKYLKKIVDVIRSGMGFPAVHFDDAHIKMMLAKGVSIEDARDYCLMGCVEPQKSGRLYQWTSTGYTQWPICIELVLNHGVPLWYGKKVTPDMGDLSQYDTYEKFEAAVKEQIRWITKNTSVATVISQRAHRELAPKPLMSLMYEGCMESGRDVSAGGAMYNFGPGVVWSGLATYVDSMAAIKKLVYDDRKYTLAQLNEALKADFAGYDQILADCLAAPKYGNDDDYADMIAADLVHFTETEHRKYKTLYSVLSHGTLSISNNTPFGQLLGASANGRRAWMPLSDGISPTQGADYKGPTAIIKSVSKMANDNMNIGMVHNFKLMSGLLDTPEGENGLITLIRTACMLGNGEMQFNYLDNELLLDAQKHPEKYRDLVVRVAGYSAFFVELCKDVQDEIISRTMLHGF
Outline: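 Desulfovibrio desulfuricans G20 CutC, activated by CutD/SAM/dithionite, used at 5 nM with 200 µM choline chloride, 200 µM NADH and 0.4 µM YADH in 50 mM potassium phosphate pH 8.0, 50 mM KCl, anaerobic, 20°C. Initial rates from NADH loss at 340 nm over 10 min, normalized to no-inhibitor controls; IC50 by nonlinear regression.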

Structure (SMILES) | Effect on growth of E. coli MS 200-1 in glycerol medium (E. coli MS 200-1) | pEC50 [1] | pIC50 [2] | Fold more potent than 6 across the panel of bacteria ([1]; compared with compound 6) | Reduction of conversion of choline to TMA by bacteria in vitro ([1]; in vitro) [%] | Inhibition of E. coli growth on choline (E. coli MS 200-1; choline minimal medium, 7 h, 6: 125–500 µM, 42: 30–100 µM)
Cc1ccc(-c2cc(C(=O)NCCCN3CCc4ccccc4C3)c(C)[nH]2)cc1C [Compound 5] | no impact on growth | 4.48 to 4.92 |  |  |  | 
Cc1ccc(-c2cc(C(=O)NCCCCCN3CCCCCC3)c(C)[nH]2)cc1C [Compound 45] |  | 4.74 to 5.70 | 4.77 | 2–10 fold | > 80 | 
Cc1ccc(-c2cc(C(=O)NCCCN3CCC(C)CC3)c(C)[nH]2)cc1C [Compound 6] | not observed in glycerol |  | 4.32 |  |  | dose-dependent
